From patent publication US8962627B2, “Oxime derivatives and their use as allosteric modulators of metabotropic glutamate receptors” (Prestwick Chemical, Inc., priority 2009, dated 2015) come the findings set out here.

Structures can show the parent of a compound that is named as a salt.

T1 sequence (Q14833 33-912): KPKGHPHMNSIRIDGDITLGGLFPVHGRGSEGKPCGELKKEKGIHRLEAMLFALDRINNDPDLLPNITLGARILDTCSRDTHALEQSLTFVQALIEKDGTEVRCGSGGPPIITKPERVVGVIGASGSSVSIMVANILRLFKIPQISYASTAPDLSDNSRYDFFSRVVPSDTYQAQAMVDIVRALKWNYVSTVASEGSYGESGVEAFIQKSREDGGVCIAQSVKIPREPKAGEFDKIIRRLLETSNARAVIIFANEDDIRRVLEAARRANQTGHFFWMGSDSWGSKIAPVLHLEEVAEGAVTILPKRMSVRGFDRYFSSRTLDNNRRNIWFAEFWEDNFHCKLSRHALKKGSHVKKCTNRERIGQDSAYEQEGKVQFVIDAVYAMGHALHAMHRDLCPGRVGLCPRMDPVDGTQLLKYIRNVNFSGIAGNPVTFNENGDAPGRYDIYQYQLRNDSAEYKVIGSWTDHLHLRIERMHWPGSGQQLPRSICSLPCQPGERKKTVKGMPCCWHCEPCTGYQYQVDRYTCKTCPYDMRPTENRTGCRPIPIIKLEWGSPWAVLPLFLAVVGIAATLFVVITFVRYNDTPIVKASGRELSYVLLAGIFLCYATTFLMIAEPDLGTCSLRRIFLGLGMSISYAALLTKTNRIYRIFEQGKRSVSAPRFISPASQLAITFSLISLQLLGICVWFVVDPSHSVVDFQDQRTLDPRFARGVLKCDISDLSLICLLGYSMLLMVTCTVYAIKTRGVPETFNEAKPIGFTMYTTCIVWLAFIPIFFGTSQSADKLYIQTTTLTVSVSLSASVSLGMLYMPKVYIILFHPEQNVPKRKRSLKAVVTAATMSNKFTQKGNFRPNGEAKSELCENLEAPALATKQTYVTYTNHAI

The test has as its target T1, human mGluR4 transiently over-expressed in HEK-293 cells (Homo sapiens, UniProt Q14833).
T1 construct: expressed in transfected cells; host or cells: HEK-293 cells, transient co-transfection by electroporation
Description: Human mGluR4 positive allosteric modulator evaluation using Ca++ functional assay. Particulars: HEK-293 cells co-transfected with hmGluR4 and chimeric G protein; EC10 glutamate; intracellular calcium (Fluo4AM); read-out: mean EC50 of agonist/positive allosteric modulator activity on mGluR4. Type of test: cell-based. The protocol: Human mGluR4 Positive Allosteric Modulator Evaluation Using Ca^++ Functional Assay
Compounds of the present invention were tested successively for their agonist and positive allosteric modulator activities on human mGluR4 transiently over-expressed in HEK-293 cells. They exert agonist activity if, by themselves in absence of the endogenous glutamate, they are able to activate mGluR4; and they exert positive allosteric modulator activity if they increase the action of the endogenous glutamate.
Cell Culture and Transfection
HEK-293 cells were maintained in Modified Eagle's Medium supplemented with 10% Foetal Calf Serum, 1% Penicillin/Streptomycin and 1% non essential amino acids at 37° C./5% CO2.
Cells were co-transfected by electroporation with two DNA plasmids encoding hmGluR4 and a chimeric G protein allowing redirection of the activation signal to intracellular calcium pathway. Cells were plated after transfection onto polyornithine coated, clear bottom, black-walled, 96-well plates and cultured for 24 h.
Calcium Assay EC50 Determination
Receptor activity was detected by changes in intracellular calcium measured using the fluorescent Ca^2+ sensitive dye, Fluo4AM (Molecular Probes).
The day of the assay, medium was aspirated and replaced during 3 hours by medium without serum supplemented with 1% Glutamax, 1% Penicillin/Streptomycin and 1% non essential amino acids. Then, cells were washed with freshly prepared buffer B (HBSS 1×(PAA), Hepes 20 mM, MgSO4-7H2O 1 mM, Na2CO3 3.3 mM, CaCl2-2H2O 1.3 mM, 0.5% BSA, Probenecid 2.5 mM) and loaded at 37° C. in 5% CO2 for 1.5 hours with buffer B containing 1 μM Fluo4AM 0.1 mg/mL Pluronic Acid, 7 μg/mL Glutamate Pyruvate Transaminase and 2 mM sodium pyruvate. Afterwards cells were washed twice with buffer B and 50 μL of this buffer were added to each well. Addition of compounds and intracellular Ca^2+ measurements (excitation 485 nm, emission 525 nm) were performed by the fluorescence microplate reader FlexStation (Molecular Devices).
Agonist and positive allosteric modulator activities of compounds were consecutively evaluated on the same cells plate. Agonist activity was first tested during 60 s with the addition of compound alone on the cells. Then, the cells were stimulated by an EC10 glutamate concentration and fluorescence recorded for additional 60 s. EC10 glutamate concentration is the concentration giving 10% of the maximal glutamate response. Agonist and/or positive allosteric modulator activity(ies) were evaluated in comparison to basal signal evoked by EC10 glutamate alone.
For EC50 determination, a dose-response test was performed using 6 to 9 concentrations of each compound of the invention. Dose-response curves were fitted using the sigmoidal dose-response (variable slope) analysis in GraphPad Prism program (Graph Pad Inc) and EC50 of agonist/positive allosteric modulator activity was calculated. Dose-response experiments were all performed in duplicate, two times independently.
On the technique in general: Calcium assays in cells follow changes in intracellular calcium, usually with a dye or a luminescent sensor.
Consider `ON=c1cc(-c2cc3ccccc3cn2)oc2cc(C#Cc3ccccc3)ccc12` (mixture of isomers) [Example 20, 2-isoquinolin-3-yl-7-phenylethynyl-chromen-4-one oxime], for which the EC50 was under 1000 nM.
Under `ON=c1cc(-c2cc3cccn3cn2)oc2ccc(OCCCOc3ccccc3)cc12` [Example 162, 6-(3-Phenoxy-propoxy)-2-pyrrolo[1,2-c]pyrimidin-3-yl-chromen-4-one oxime] stands under 1000 nM; under `ON=c1cc(-c2cc3cccn3cn2)oc2ccc(OCCn3ccnc3)cc12` [Example 105, 6-(2-imidazol-1-O-ethoxy)-2-pyrrolo[1,2-c]pyrimidin-3-yl-chromen-4-one oxime], under 1000 nM.
Then `ON=c1cc(-c2cc3cccn3cn2)oc2cccc(OCCCN3CCOCC3)c12` [Example 157, 5-(3-Morpholin-4-yl-propoxy)-2-pyrrolo[1,2-c]pyrimidin-3-yl-chromen-4-one oxime, hydrochloride], with under 5000 nM; and `COc1ccc(C#Cc2ccc3c(=NO)cc(-c4cc5ccccc5cn4)oc3c2)cc1` (mixture of isomers) [Example 31, 2-isoquinolin-3-yl-7-(4-methoxyphenyl)ethynyl-chromen-4-one oxime], with under 5000 nM.
As to `C#Cc1ccc2c(=NO)cc(-c3cc4ccccc4cn3)oc2c1` (mixture of isomers) [Example 23, 7-ethynyl-2-isoquinolin-3-yl-chromen-4-one oxime], the EC50 was under 1000 nM.
For the compound `ON=c1cc(-c2cc3ccn(O)c3cn2)oc2ccccc12` [Example 76, 2-(1-Hydroxy-7H-pyrrolo[2,3-c]pyridin-5-yl)-chromen-4-one oxime], the EC50 was under 5000 nM.
Under `O=C(COc1ccc2oc(-c3cc4cccn4cn3)cc(=NO)c2c1)Nc1ccc(F)cc1` [Example 150, N-(4-Fluoro-phenyl)-2-{4-hydroxyimino-2-pyrrolo[1,2-c]pyrimidin-3-yl-4H-chromen-6-yloxy}-acetamide] stands under 1000 nM; under `C[C@@H]1CN(CCOc2ccc3oc(-c4cc5cccn5cn4)cc(=NO)c3c2)C[C@H](C)O1` [Example 112, 6-[2-(cis-2,6-dimethyl-morpholin-4-yl)-ethoxy]-2-pyrrolo[1,2-c]pyrimidin-3-yl-chromen-4-one oxime, hydrochloride], under 1000 nM; under `ON=c1cc(-c2cc3cccn3cn2)oc2ccc(OCCCOc3ccc(F)cc3)cc12` [Example 161, 6-[3-(4-Fluoro-phenoxy)-propoxy]-2-pyrrolo[1,2-c]pyrimidin-3-yl-chromen-4-one oxime], under 1000 nM.
Then `ON=c1cc(-c2cc3cccn3cn2)oc2ccc(/C=C\CN3CCOCC3)cc12` [Example 107], with under 1000 nM; and `ON=c1cc(-c2cc3ccccc3cn2)oc2cc(CCc3ccccc3)ccc12` (mixture of isomers) [Example 22, 2-isoquinolin-3-yl-7-phenethyl-chromen-4-one oxime], with under 5000 nM; and `ON=c1cc(-c2cc3cccn3cn2)oc2ccc(OCCN3CCC(F)(F)CC3)cc12` [Example 103, hydrochloride], with under 1000 nM.
Then `ON=c1cc(-c2cc3cnccc3cn2)oc2ccccc12` [Example 61, 2-[2,6]Naphthyridin-3-yl-chromen-4-one oxime], with under 1000 nM; and `ON=c1cc(-c2cc3cccn3cn2)oc2ccc(OCCCOc3cccc(F)c3)cc12` [Example 163, 6-[3-(3-Fluoro-phenoxy)-propoxy]-2-pyrrolo[1,2-c]pyrimidin-3-yl-chromen-4-one oxime], with under 1000 nM.
As for `CCN1CCN(CCOc2ccc3oc(-c4cc5cccn5cn4)cc(=NO)c3c2)CC1.Cl.Cl` [Example 121, 6-[2-(4-ethyl-piperazin-1-yl-ethoxy]-2-pyrrolo[1,2-c]pyrimidin-3-yl-chromen-4-one oxime, dihydrochloride], the EC50 was under 5000 nM.
Under `ON=c1cc(-c2cc3cccn3cn2)oc2ccc(OCCc3ccc(F)cc3)cc12` [Example 109, 6-[2-(4-fluoro-phenyl)-ethoxy]-2-pyrrolo[1,2-c]pyrimidin-3-yl-chromen-4-one oxime, hydrochloride] stands under 1000 nM.
Under `ON=c1cc(-c2cc3cccn3cn2)oc2cc(OCCN3CCOCC3)ccc12` [Example 142, 7-(2-Morpholin-4-yl-ethoxy)-2-pyrrolo[1,2-c]pyrimidin-3-yl-chromen-4-one oxime, hydrochloride] stands under 1000 nM; under `ON=c1cc(-c2cc3cccn3cn2)oc2ccc(O)cc12` [Example 81, 6-Hydroxy-2-pyrrolo[1,2-c]pyrimidin-3-yl-chromen-4-one oxime], under 1000 nM; under `ON=c1cc(-c2cc3cccn3cn2)oc2ccc(Br)cc12` (mixture of isomers) [Example 66, 6-bromo-2-Pyrrolo[1,2-c]pyrimidin-3-yl-chromen-4-one oxime], under 5000 nM.
As to `ON=c1cc(-c2cc3cccn3cn2)oc2ccc(OCCCOc3ccc(F)c(F)c3)cc12` [Example 164, 6-[3-(3,4-Difluoro-phenoxy)-propoxy]-2-pyrrolo[1,2-c]pyrimidin-3-yl-chromen-4-one oxime], the EC50 was under 1000 nM.
For the compound `ON=c1cc(-c2cc3sccc3cn2)oc2ccc(OCCc3ccc(F)cc3)cc12` [Example 130, 6-[2-(4-Fluoro-phenyl)-ethoxy]-2-thieno[3,2-c]pyridin-6-yl-chromen-4-one oxime], the EC50 is under 1000 nM.
Then `O=C(COc1ccc2oc(-c3cc4cccn4cn3)cc(=NO)c2c1)Nc1ccc(F)cn1` [Example 152, N-(5-Fluoro-pyridin-2-yl)-2-{4-hydroxyimino-2-pyrrolo[1,2-c]pyrimidin-3-yl-4H-chromen-6-yloxy}-acetamide], with under 1000 nM; and `CNc1cccc(C#Cc2ccc3c(=NO)cc(-c4cc5ccccc5cn4)oc3c2)c1` (mixture of isomers) [Example 51, 2-Isoquinolin-3-yl-7-{3-methylaminophenylethynyl}-chromen-4-one oxime], with under 1000 nM; and `ON=c1cc(-c2cc3ccccc3cn2)oc2ccc(C3CC3)cc12` (mixture of isomers) [Example 34, 6-cyclopropyl-2-isoquinolin-3-yl-chromen-4-one oxime], with under 5000 nM.
In the case of `ON=c1cc(-c2cc3nccn3cn2)oc2ccccc12` (mixture of isomers) [Example 73, 2-Imidazo[1,2-c]pyrimidin-7-yl-chromen-4-one oxime], the EC50 is under 1000 nM.
In the case of `Cc1c(-c2cc3ccccc3cn2)oc2ccccc2c1=NO` [Example 71, 2-Isoquinolin-3-yl-3-methyl-chromen-4-one oxime], the EC50 is under 5000 nM.
Under `ON=c1cc(-c2cc3cccn3cn2)oc2ccc(OCCN3C[C@@H]4C[C@H]3CO4)cc12` [Example 111, 6-[(1S,4S)-2-(2-oxa-5-aza-bicyclo[2.2.1]hept-5-yl)-ethoxy]-2-pyrrolo[1,2-c]pyrimidin-3-yl-chromen-4-one oxime, hydrochloride] stands under 1000 nM.
Then `ON=c1cc(-c2cc3cccn3cn2)oc2cc(OCCCN3CCOCC3)ccc12` [Example 143, 7-(3-Morpholin-4-yl-propoxy)-2-pyrrolo[1,2-c]pyrimidin-3-yl-chromen-4-one oxime hydrochloride], with under 1000 nM; and `COCCOc1ccc2oc(-c3cc4cccn4cn3)cc(=NO)c2c1` [Example 67, 6-methoxyethoxy-2-Pyrrolo[1,2-c]pyrimidin-3-yl-chromen-4-one oxime], with under 1000 nM.
Then `ON=c1cc(-c2cc3cccn3cn2)oc2ccc(CCCN3CCOCC3)cc12` [Example 106, 6-(3-morpholin-4-yl-propyl)-2-pyrrolo[1,2-c]pyrimidin-3-yl-chromen-4-one oxime, hydrochloride], with under 1000 nM; and `CC1CCCN1CCOc1ccc2oc(-c3cc4cccn4cn3)cc(=NO)c2c1` (stereo not drawn) [Example 92, 6-[2-(2-methyl-pyrrolidin-1-yl)-ethoxy]-2-pyrrolo[1,2-c]pyrimidin-3-yl-chromen-4-one oxime, hydrochloride], with under 5000 nM.
Consider `ON=c1cc(-c2cc3cccn3cn2)oc2ccc(OCCN3CCC(C(F)(F)F)CC3)cc12` [Example 113, 2-pyrrolo[1,2-c]pyrimidin-3-yl-6-[2-(4-trifluoromethyl-piperidin-1-yl)-ethoxy]chromen-4-one oxime, hydrochloride], for which the EC50 is under 1000 nM.
